From patent EP0816362A1, “THIAZOLE DERIVATIVES” (TAISHO PHARMACEUTICAL CO. LTD, priority 1995, dated 1996)

tested on: not given; experiment: not given; conditions: Summary and Clinical Data, Sandoz, Canada Inc. (1990); a case of death also reported; cited from earlier work

Question: For `CN1CCN(C2=Nc3cc(Cl)ccc3Nc3ccccc32)CC1` [clozapine], which blood disorder is on record?
Answer: agranulocytosis

same assay, conditions: clinical experiments, compared with dopamine D2 receptor antagonist; cited from earlier work

Question: For `CN1CCN(C2=Nc3cc(Cl)ccc3Nc3ccccc32)CC1` [clozapine], which extrapyramidal disorder is on record?
Answer: less extrapyramidal disorder

target: T1, human D4.2 receptor (Homo sapiens, UniProt P21917, DEL265-296); experiment: Dopamine D4 receptor binding experiment ([3H]-spiperone); conditions: inhibition of [3H]-spiperone binding, human D4.2 receptor
T1 sequence (P21917 with tags, fused parts or gaps DEL265-296): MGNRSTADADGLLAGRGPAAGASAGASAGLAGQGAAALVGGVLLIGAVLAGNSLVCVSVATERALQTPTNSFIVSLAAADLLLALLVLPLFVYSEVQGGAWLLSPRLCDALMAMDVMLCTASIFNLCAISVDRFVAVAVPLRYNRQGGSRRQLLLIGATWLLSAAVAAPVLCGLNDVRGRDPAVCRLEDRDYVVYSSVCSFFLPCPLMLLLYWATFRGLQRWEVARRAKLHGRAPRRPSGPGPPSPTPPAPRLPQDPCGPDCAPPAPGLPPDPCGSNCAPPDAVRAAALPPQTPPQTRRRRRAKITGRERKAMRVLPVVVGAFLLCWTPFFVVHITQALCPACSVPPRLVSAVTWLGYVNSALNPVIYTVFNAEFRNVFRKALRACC
Procedure: As a receptor preparation, Chinese hamster ovary (CHO) cell membranes where human D4.2 receptor was expressed were used.
As [^3H]-labeled ligand, [^3H]-spiperone was used.
Human D4.2 receptor binding test: CHO cell membranes where human D4.2 receptor was expressed, [^3H]-spiperone (0.5 nM) and a test drug were reacted at 27°C for 2 hours in 50 mM Tris-HCl buffer, pH 7.4 containing 5 mM EDTA, 1.5 mM calcium chloride, 5 mM potassium chloride and 120 mM sodium chloride.
After the reaction, the sample was filtered under suction through a glass filter (GF/B), and the radioactivity of the filter paper was determined in a liquid scintillation spectrometer.
The binding of [^3H]-spiperone in the presence of 10 µM haloperidol was assumed to be non-specific binding, and the difference between the total binding and the non-specific binding was assumed to be specific binding.

Question: Which IC50 does the source give for `COc1ccc(-c2nc(C)sc2CCN2CCC(=Cc3ccc(F)cc3)CC2)cc1Br` [Compound L-22] here?
Answer: 13.9 nM

Question: Which IC50 does the source give for `Cc1nc(-c2ccccc2)c(CCN2CCC(=Cc3ccc(F)cc3)CC2)s1` [Compound L-23] here?
Answer: 3.13 nM

Question: With `Cc1nc(-c2ccc(F)cc2)c(CCN2CCC(=Cc3ccc(Cl)cc3)CC2)s1` [Compound L-24] as the compound, how does the IC50 read?
Answer: 11.5 nM

Question: With `Cc1nc(-c2ccc(F)cc2)c(CCN2CCC(=Cc3ccc(Br)cc3)CC2)s1` [Compound L-25] as the compound, how does the IC50 read?
Answer: 29.2 nM

Question: Which IC50 does the source give for `COc1ccc(C=C2CCN(CCc3sc(C)nc3-c3ccc(F)cc3)CC2)cc1` [Compound L-26] here?
Answer: 16.7 nM

Question: With `Cc1nc(-c2ccc(F)cc2)c(CCN2CCC(=Cc3cccc(F)c3)CC2)s1` [Compound L-27] as the compound, how does the IC50 read?
Answer: 1.96 nM

Question: For `Cc1nc(-c2ccc(F)cc2)c(CCN2CCC(=Cc3ccccc3F)CC2)s1` [Compound L-28], which IC50 is on record?
Answer: 5.99 nM

Question: With `Cc1nc(-c2ccc(F)cc2)c(CCN2CCC(=Cc3cccc(C(F)(F)F)c3)CC2)s1` [Compound L-29] as the compound, how does the IC50 read?
Answer: 10.5 nM

Question: Which IC50 does the source give for `Cc1nc(-c2ccc(F)cc2)c(CCN2CCC(=Cc3ccccc3)CC2)s1` [Compound L-30] here?
Answer: 2.6 nM

Question: Which IC50 does the source give for `CC(=C1CCN(CCc2sc(C)nc2-c2ccc(F)cc2)CC1)c1ccc(F)cc1` [Compound L-31] here?
Answer: 16.7 nM

Question: With `Fc1ccc(C=C2CCN(CCc3scnc3-c3ccc(F)cc3)CC2)cc1` [Compound L-32] as the compound, how does the IC50 read?
Answer: 6.58 nM

Question: Which IC50 does the source give for `Fc1ccc(-c2ncsc2CCN2CCC(=Cc3ccccc3)CC2)cc1` [Compound L-33] here?
Answer: 3.43 nM

Question: Which IC50 does the source give for `CNc1nc(-c2ccc(F)cc2)c(CCN2CCC(=Cc3ccc(F)cc3)CC2)s1` [Compound L-35] here?
Answer: 2.15 nM
